Measured values as given in publication PMC4303209, “A novel phosphatidylinositol 3-kinase (PI3K) inhibitor directs a potent FOXO-dependent, p53-independent cell cycle arrest phenotype characterized by the differential induction of a subset of FOXO-regulated genes” (Breast Cancer Research : BCR, 2014).

Tested on: MCF-7 breast cancer cells
Test: Microarray gene expression analysis (Agilent whole human genome 4 x 44K; compound vs DMSO, LIMMA log2 fold change)
Format: cell-based
Conditions: Apoptosis genes

In the case of `Oc1cccc(-c2nc(N3CCOCC3)c3oc4ncccc4c3n2)c1` [PI-103], the “PML log2FC” value (Gene 5371) is reported as -0.410, the “POLR2G log2FC” value (Gene 5436) is reported as 0.401 and the “POU3F3 log2FC” value (Gene 5455) is reported as -0.338. For the same compound, the “POU4F1 log2FC” value (Gene 5457) was -0.488, the “POU4F3 log2FC” value (Gene 5459) was -0.095 and the “PPARD log2FC” value (Gene 5467) was -0.189. For the same compound, the “PPARG log2FC” value (Gene 5468) was -0.320, the “PPID log2FC” value (Gene 5481) was -0.224 and the “PPP1CA log2FC” value (Gene 5499) was -0.185. The “PPP2CA log2FC” value (Gene 5515) was -0.522, the “PPP2CB log2FC” value (Gene 5516) was -0.272 and the “PPP2R1B log2FC” value (Gene 5519) was -0.663. For the same compound, the “PPP2R2B log2FC” value (Gene 5521) was 0.085, the “PPP2R4 log2FC” value (Gene 5524) was -0.318 and the “PPP2R5C log2FC” value (Gene 5527) was 0.778. For the same compound, the “PPP3CC log2FC” value (Gene 5533) was 0.049, the “PPP3R1 log2FC” value (Gene 5534) was -0.344 and the “PPT1 log2FC” value (Gene 5538) was 0.180. The “PRF1 log2FC” value (Gene 5551) was 0.035, the “PRKAA1 log2FC” value (Gene 5562) was 0.297 and the “PRKAA2 log2FC” value (Gene 5563) was 0.067. For the same compound, the “PRKCA log2FC” value (Gene 5578) was -0.157, the “PRKCD log2FC” value (Gene 5580) was 0.117 and the “PRKCE log2FC” value (Gene 5581) was -0.00329. For the same compound, the “PRKCG log2FC” value (Gene 5582) was 0.076, the “PRKCH log2FC” value (Gene 5583) was -0.184 and the “PRKCI log2FC” value (Gene 5584) was 0.477. For the same compound, the “PKN2 log2FC” value (Gene 5586) was 0.513, the “PRKD1 log2FC” value (Gene 5587) was 0.547 and the “PRKCQ log2FC” value (Gene 5588) was 0.186. For the same compound, the “PRKCZ log2FC” value (Gene 5590) was 0.565, the “PRKDC log2FC” value (Gene 5591) was 0.275 and the “MAPK3 log2FC” value (Gene 5595) was -0.116. For the same compound, the “MAPK7 log2FC” value (Gene 5598) was -0.110, the “MAP2K6 log2FC” value (Gene 5608) was 0.357 and the “PRODH log2FC” value (Gene 5625) was -0.118. For the same compound, the “LGMN log2FC” value (Gene 5641) was -0.107, the “PSEN1 log2FC” value (Gene 5663) was 0.372 and the “PSEN2 log2FC” value (Gene 5664) was -0.390. For the same compound, the “PSMA2 log2FC” value (Gene 5683) was 0.170, the “PSMA3 log2FC” value (Gene 5684) was 0.144 and the “PSMA4 log2FC” value (Gene 5685) was 0.470. For the same compound, the “PSMA6 log2FC” value (Gene 5687) was 0.068, the “PSMB1 log2FC” value (Gene 5689) was 0.009 and the “PSMB2 log2FC” value (Gene 5690) was -0.432. For the same compound, the “PSMB4 log2FC” value (Gene 5692) was 0.171, the “PSMB5 log2FC” value (Gene 5693) was -0.219 and the “PSMB6 log2FC” value (Gene 5694) was -0.080. The “PSMB9 log2FC” value (Gene 5698) was -0.100, the “PSMB10 log2FC” value (Gene 5699) was -0.116 and the “PSMC1 log2FC” value (Gene 5700) was -0.009. For the same compound, the “PSMC2 log2FC” value (Gene 5701) was 0.279, the “PSMC3 log2FC” value (Gene 5702) was -0.185 and the “PSMC5 log2FC” value (Gene 5705) was -0.314. The “PSMC6 log2FC” value (Gene 5706) was 0.515, the “PSMD1 log2FC” value (Gene 5707) was 0.029 and the “PSMD3 log2FC” value (Gene 5709) was -0.074. The “PSMD4 log2FC” value (Gene 5710) was -0.036, the “PSMD5 log2FC” value (Gene 5711) was 0.189 and the “PSMD7 log2FC” value (Gene 5713) was 0.00364. For the same compound, the “PSMD8 log2FC” value (Gene 5714) was -0.122, the “PSMD9 log2FC” value (Gene 5715) was -0.396 and the “PSMD10 log2FC” value (Gene 5716) was -0.344. For the same compound, the “PSMD11 log2FC” value (Gene 5717) was -0.327, the “PSMD12 log2FC” value (Gene 5718) was -0.768 and the “PSME1 log2FC” value (Gene 5720) was 0.313. The “PTEN log2FC” value (Gene 5728) was 0.958, the “PTGFR log2FC” value (Gene 5737) was -0.038 and the “PTGIS log2FC” value (Gene 5740) was -0.013. The “PTH log2FC” value (Gene 5741) was -0.180, the “PTGS2 log2FC” value (Gene 5743) was -0.053 and the “PTK2 log2FC” value (Gene 5747) was 0.040. The “PTPN6 log2FC” value (Gene 5777) was 0.257, the “PTPRC log2FC” value (Gene 5788) was -0.026 and the “PTPRH log2FC” value (Gene 5794) was 0.545. The “RAC1 log2FC” value (Gene 5879) was -0.226, the “RAD9A log2FC” value (Gene 5883) was 0.679 and the “RAD21 log2FC” value (Gene 5885) was 0.829. For the same compound, the “RAG1 log2FC” value (Gene 5896) was 0.688, the “RALB log2FC” value (Gene 5899) was 0.076 and the “RARA log2FC” value (Gene 5914) was -0.310. For the same compound, the “RARG log2FC” value (Gene 5916) was -0.122, the “RASA1 log2FC” value (Gene 5921) was 0.472 and the “RASGRF2 log2FC” value (Gene 5924) was 0.069. The “RB1 log2FC” value (Gene 5925) was 0.674, the “RELA log2FC” value (Gene 5970) was -0.351 and the “DPF2 log2FC” value (Gene 5977) was 0.525. For the same compound, the “REST log2FC” value (Gene 5978) was 0.317, the “ROBO1 log2FC” value (Gene 6091) was 0.307 and the “ROBO2 log2FC” value (Gene 6092) was 0.013. The “ROCK1 log2FC” value (Gene 6093) was 0.642, the “RPS3A log2FC” value (Gene 6189) was 0.496 and the “RPS6 log2FC” value (Gene 6194) was 0.259. The “RPS6KA1 log2FC” value (Gene 6195) was -0.106, the “RPS6KA3 log2FC” value (Gene 6197) was 0.273 and the “RPS6KB1 log2FC” value (Gene 6198) was 0.247. For the same compound, the “RPS27A log2FC” value (Gene 6233) was 0.447, the “RTKN log2FC” value (Gene 6242) was -0.055 and the “SORT1 log2FC” value (Gene 6272) was 0.382. For the same compound, the “S100A8 log2FC” value (Gene 6279) was -0.346, the “S100B log2FC” value (Gene 6285) was -0.112 and the “SATB1 log2FC” value (Gene 6304) was 0.836. The “SCT log2FC” value (Gene 6343) was -0.026, the “CCL2 log2FC” value (Gene 6347) was -0.193 and the “CCL3 log2FC” value (Gene 6348) was -0.075. For the same compound, the “CCL5 log2FC” value (Gene 6352) was 0.070, the “CCL21 log2FC” value (Gene 6366) was -0.020 and the “CX3CL1 log2FC” value (Gene 6376) was -0.245. The “CXCL12 log2FC” value (Gene 6387) was -0.262, the “MAP2K4 log2FC” value (Gene 6416) was -0.057 and the “SET log2FC” value (Gene 6418) was 0.155. The “SFRP1 log2FC” value (Gene 6422) was 0.243, the “SFRP2 log2FC” value (Gene 6423) was -0.008 and the “SFRP4 log2FC” value (Gene 6424) was 0.079. The “SFRP5 log2FC” value (Gene 6425) was -0.036, the “ITSN1 log2FC” value (Gene 6453) was 0.185 and the “SHB log2FC” value (Gene 6461) was -0.563. For the same compound, the “SHH log2FC” value (Gene 6469) was -0.168, the “SIAH1 log2FC” value (Gene 6477) was 0.170 and the “SIAH2 log2FC” value (Gene 6478) was -0.479. For the same compound, the “STIL log2FC” value (Gene 6491) was 0.014, the “SIX1 log2FC” value (Gene 6495) was -0.700 and the “SKI log2FC” value (Gene 6497) was -0.565. For the same compound, the “SLC9A1 log2FC” value (Gene 6548) was -0.632, the “SLIT3 log2FC” value (Gene 6586) was -0.267 and the “SNAI2 log2FC” value (Gene 6591) was 0.040. For the same compound, the “SMO log2FC” value (Gene 6608) was 0.037, the “SMPD1 log2FC” value (Gene 6609) was 0.629 and the “SMPD2 log2FC” value (Gene 6610) was -0.222. For the same compound, the “SIGLEC1 log2FC” value (Gene 6614) was -0.395, the “SNAI1 log2FC” value (Gene 6615) was -0.868 and the “SNCB log2FC” value (Gene 6620) was -0.584. For the same compound, the “SNCA log2FC” value (Gene 6622) was -0.028, the “SOD2 log2FC” value (Gene 6648) was 0.190 and the “SON log2FC” value (Gene 6651) was -0.153. The “SOX2 log2FC” value (Gene 6657) was 0.228, the “SOX4 log2FC” value (Gene 6659) was 0.369 and the “SOX9 log2FC” value (Gene 6662) was -2.014. For the same compound, the “SOX10 log2FC” value (Gene 6663) was -0.037, the “SP100 log2FC” value (Gene 6672) was 0.688 and the “SPI1 log2FC” value (Gene 6688) was -0.418. The “SPN log2FC” value (Gene 6693) was 0.011, the “SRC log2FC” value (Gene 6714) was -0.352 and the “SRPK2 log2FC” value (Gene 6733) was 0.776. The “SST log2FC” value (Gene 6750) was 0.576, the “SSTR3 log2FC” value (Gene 6753) was -0.180 and the “STAR log2FC” value (Gene 6770) was -0.178. For the same compound, the “STAT1 log2FC” value (Gene 6772) was 0.221, the “STAT5A log2FC” value (Gene 6776) was 0.392 and the “STAT5B log2FC” value (Gene 6777) was 0.109. For the same compound, the “STK4 log2FC” value (Gene 6789) was -0.017, the “STK11 log2FC” value (Gene 6794) was 0.00114 and the “STXBP1 log2FC” value (Gene 6812) was -0.400. For the same compound, the “SUPV3L1 log2FC” value (Gene 6832) was 0.284, the “ADAM17 log2FC” value (Gene 6868) was 0.527 and the “TAF9 log2FC” value (Gene 6880) was 0.095. For the same compound, the “MAP3K7 log2FC” value (Gene 6885) was 0.00173.
